Earlier results in patent US20020172713A1, “Micron sized bicarbonate particles and slurrys containing the same” (Church & Dwight, Co., Inc., priority 2001, published 2002).
Read-outs that look alike come from different tables or passages of the source.

Conditions: prior art particles, dilution of about 70% by weight slurry with additional water

alkali metal bicarbonate particles dissolved in dilution (10° C.): 7%
alkali metal bicarbonate particles dissolved in dilution (22° C.): 8.5%
SMILES: O=C([O-])O.[Na+] [sodium bicarbonate]
